Experimental data taken from ChEMBL document CHEMBL1201862, “PubChem BioAssay data set” (2004).
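Compound exposure: 48 hours, 5 concentrations, 96-well plates. GI50 is the concentration that inhibits growth by half.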 Calls of active or inactive are those of the source. No stated cut-off is given here; in the data, active = GI50 up to about 1.1 µM and inactive = higher.

Experiments:
Test in all cases: DTP human tumour cell line panel, 48 h
SR = tested on: SR
UACC-257 = tested on: UACC-257
NCI-H522 = tested on: NCI-H522
786-0 = tested on: 786-0
HOP-18 = tested on: HOP-18
NCI-H23 = tested on: NCI-H23
Malme-3M = tested on: Malme-3M
OVCAR-4 = tested on: OVCAR-4
SK-MEL-2 = tested on: SK-MEL-2
TK-10 = tested on: TK-10
SF-268 = tested on: SF-268
NCI-H226 = tested on: NCI-H226
ACHN = tested on: ACHN
UACC-62 = tested on: UACC-62
RXF 631 = tested on: RXF 631
HL-60 = tested on: HL-60
U-251 = tested on: U-251
SK-MEL-5 = tested on: SK-MEL-5
SN12C = tested on: SN12C
SNB-78 = tested on: SNB-78
NCI-H460 = tested on: NCI-H460
HCC 2998 = tested on: HCC 2998
M19-MEL = tested on: M19-MEL
OVCAR-5 = tested on: OVCAR-5
DLD-1 = tested on: DLD-1
SF-295 = tested on: SF-295
XF498 = tested on: XF498
EKVX = tested on: EKVX
SNB-75 = tested on: SNB-75
SK-MEL-28 = tested on: SK-MEL-28
IGROV-1 = tested on: IGROV-1
SK-OV-3 = tested on: SK-OV-3
OVCAR-3 = tested on: OVCAR-3
OVCAR-8 = tested on: OVCAR-8
M14 = tested on: M14
KM-20L2 = tested on: KM-20L2
HOP-62 = tested on: HOP-62
K562 = tested on: K562
A498 = tested on: A498
COLO 205 = tested on: COLO 205
SNB-19 = tested on: SNB-19
KM12 = tested on: KM12
UO-31 = tested on: UO-31
CAKI-1 = tested on: CAKI-1
SW-620 = tested on: SW-620
HCT-116 = tested on: HCT-116
DMS-114 = tested on: DMS-114
DMS-273 = tested on: DMS-273
HOP-92 = tested on: HOP-92
LOX IMVI = tested on: LOX IMVI
CCRF-CEM = tested on: CCRF-CEM
SF-539 = tested on: SF-539
RXF 393 = tested on: RXF 393
LXFL 529 = tested on: LXFL 529
HCT-15 = tested on: HCT-15
A549 = tested on: A549
MOLT-4 = tested on: MOLT-4
PC-3 = tested on: PC-3
HT-29 = tested on: HT-29
MDA-N = tested on: MDA-N
MCF7 = tested on: MCF7
Hs-578T = tested on: Hs-578T
DU-145 = tested on: DU-145
T47D = tested on: T47D
BT-549 = tested on: BT-549
MDA-MB-231 = tested on: MDA-MB-231
RPMI-8226 = tested on: RPMI-8226
MDA-MB-435 = tested on: MDA-MB-435

Measured: GI50

COc1ccc(Nc2nc3c(N)cc(C(F)(F)F)cc3nc2-c2ccccc2)cc1
> 100 µM: HCT-15
inactive: SR 21.9 µM | UACC-257 > 100 µM | NCI-H522 44.3 µM | 786-0 35.6 µM | HOP-18 36.7 µM | NCI-H23 69.7 µM | Malme-3M 78.3 µM | OVCAR-4 37.2 µM | SK-MEL-2 89.5 µM | TK-10 > 100 µM | SF-268 75.7 µM | NCI-H226 68.9 µM | ACHN > 100 µM | UACC-62 > 100 µM | RXF 631 44.6 µM | HL-60 16.9 µM | U-251 83.2 µM | SK-MEL-5 57.1 µM | SN12C > 100 µM | SNB-78 60.4 µM | NCI-H460 60.4 µM | HCC 2998 > 100 µM | M19-MEL > 100 µM | OVCAR-5 > 100 µM | DLD-1 > 100 µM | SF-295 71.3 µM | XF498 31.7 µM | EKVX 61.9 µM | SNB-75 28.8 µM | SK-MEL-28 > 100 µM | IGROV-1 52 µM | SK-OV-3 83 µM | OVCAR-3 33.6 µM | OVCAR-8 > 100 µM | M14 79.6 µM | KM-20L2 > 100 µM | HOP-62 83.2 µM | K562 > 100 µM | A498 > 100 µM | COLO 205 > 100 µM | SNB-19 71.6 µM | KM12 83 µM | UO-31 > 100 µM | CAKI-1 > 100 µM | SW-620 > 100 µM | HCT-116 > 100 µM | DMS-114 80.7 µM | DMS-273 > 100 µM | HOP-92 37.6 µM | LOX IMVI > 100 µM | CCRF-CEM > 100 µM | SF-539 > 100 µM | RXF 393 27.2 µM | LXFL 529 78.2 µM | A549 > 100 µM | MOLT-4 > 100 µM

C[C@]12CCNC(=O)C=C1CC[C@@H]1C2CC[C@@]2(C)C1CC[C@@H]2OC(=O)COc1ccc(N(CCCl)CCCl)cc1 (stereo partly specified)
inactive: UACC-257 13.8 µM | NCI-H522 1.65 µM | HOP-18 18.8 µM | NCI-H23 2.99 µM | PC-3 > 10 µM | Malme-3M 8.45 µM | HT-29 8.59 µM | OVCAR-4 6.11 µM | SK-MEL-2 18.5 µM | TK-10 17.6 µM | SF-268 2.74 µM | NCI-H226 13.1 µM | UACC-62 1.28 µM | RXF 631 4.71 µM | HL-60 1.32 µM | U-251 2.03 µM | SK-MEL-5 7.33 µM | SN12C 4.65 µM | SNB-78 28.6 µM | HCC 2998 3.84 µM | MDA-N 13.3 µM | M19-MEL 4.91 µM | MCF7 1.29 µM | OVCAR-5 12.6 µM | DLD-1 4.56 µM | Hs-578T 17.7 µM | SF-295 8.09 µM | DU-145 4.54 µM | XF498 1.35 µM | T47D 1.88 µM | EKVX 16.1 µM | SNB-75 8.75 µM | SK-MEL-28 17 µM | IGROV-1 13.1 µM | SK-OV-3 6.27 µM | OVCAR-3 3.05 µM | OVCAR-8 4.09 µM | M14 6.35 µM | KM-20L2 14.4 µM | HOP-62 2.84 µM | K562 2.91 µM | A498 18.6 µM | COLO 205 9.08 µM | SNB-19 10.8 µM | KM12 8.28 µM | UO-31 4.76 µM | CAKI-1 4.15 µM | SW-620 2.23 µM | HCT-116 3.73 µM | HOP-92 7.73 µM | BT-549 17.5 µM | LOX IMVI 3.21 µM | SF-539 2.07 µM | RXF 393 4.37 µM | MDA-MB-231 17.5 µM | LXFL 529 7.57 µM | RPMI-8226 4.65 µM | MDA-MB-435 21.8 µM | A549 5.37 µM
active: SR 0.138 µM | 786-0 0.964 µM | ACHN 0.982 µM | NCI-H460 0.308 µM | DMS-273 0.638 µM | CCRF-CEM 0.326 µM | MOLT-4 0.145 µM
2.68 µM: HCT-15

O=C(O)c1ccc([I+]c2ccccc2)cc1
> 100 µM: HCT-15
inactive: SR > 100 µM | UACC-257 > 100 µM | NCI-H522 > 100 µM | 786-0 > 100 µM | HOP-18 > 100 µM | NCI-H23 > 100 µM | Malme-3M > 100 µM | HT-29 > 100 µM | OVCAR-4 > 100 µM | SK-MEL-2 > 100 µM | TK-10 > 100 µM | SF-268 > 100 µM | NCI-H226 > 100 µM | UACC-62 > 100 µM | RXF 631 > 100 µM | HL-60 > 100 µM | U-251 > 100 µM | SK-MEL-5 > 100 µM | SN12C > 100 µM | SNB-78 > 100 µM | NCI-H460 > 100 µM | HCC 2998 > 100 µM | M19-MEL > 100 µM | OVCAR-5 > 100 µM | DLD-1 > 100 µM | SF-295 > 100 µM | XF498 > 100 µM | EKVX > 100 µM | SNB-75 > 100 µM | IGROV-1 > 100 µM | SK-OV-3 > 100 µM | OVCAR-3 > 100 µM | OVCAR-8 > 100 µM | M14 > 100 µM | KM-20L2 > 100 µM | HOP-62 > 100 µM | K562 > 100 µM | A498 > 100 µM | COLO 205 > 100 µM | SNB-19 > 100 µM | KM12 > 100 µM | UO-31 > 100 µM | CAKI-1 > 100 µM | SW-620 > 100 µM | HCT-116 > 100 µM | DMS-114 > 100 µM | DMS-273 > 100 µM | HOP-92 > 100 µM | LOX IMVI > 100 µM | CCRF-CEM > 100 µM | SF-539 > 100 µM | RXF 393 > 100 µM | LXFL 529 > 100 µM | RPMI-8226 > 100 µM | A549 > 100 µM | MOLT-4 > 100 µM
